Source: patent publication US20240343753A1, “THERAPEUTIC COMPOUNDS” (Regents of the University of Minnesota, priority 2023, published 2024)

Columns and labels:
[1] = biological target: T1, recombinant human TET1 catalytic domain (Homo sapiens, UniProt Q8NFU7); test: In vitro TET1 activity assay, LC-MS/MS quantitation of 5hmC; format: biochemical; details: for TET inhibition (in words): TET1 catalytic domain, hemimethylated oligomer substrate, FIG. 2; for reduced hmC production in comparison to DMSO control: 30 minute incubation
T1 construct: enzymatically active catalytic domain of human TET1; purchased Active Motif 31417
T1 sequence (Q8NFU7 1418-2136 limits assumed): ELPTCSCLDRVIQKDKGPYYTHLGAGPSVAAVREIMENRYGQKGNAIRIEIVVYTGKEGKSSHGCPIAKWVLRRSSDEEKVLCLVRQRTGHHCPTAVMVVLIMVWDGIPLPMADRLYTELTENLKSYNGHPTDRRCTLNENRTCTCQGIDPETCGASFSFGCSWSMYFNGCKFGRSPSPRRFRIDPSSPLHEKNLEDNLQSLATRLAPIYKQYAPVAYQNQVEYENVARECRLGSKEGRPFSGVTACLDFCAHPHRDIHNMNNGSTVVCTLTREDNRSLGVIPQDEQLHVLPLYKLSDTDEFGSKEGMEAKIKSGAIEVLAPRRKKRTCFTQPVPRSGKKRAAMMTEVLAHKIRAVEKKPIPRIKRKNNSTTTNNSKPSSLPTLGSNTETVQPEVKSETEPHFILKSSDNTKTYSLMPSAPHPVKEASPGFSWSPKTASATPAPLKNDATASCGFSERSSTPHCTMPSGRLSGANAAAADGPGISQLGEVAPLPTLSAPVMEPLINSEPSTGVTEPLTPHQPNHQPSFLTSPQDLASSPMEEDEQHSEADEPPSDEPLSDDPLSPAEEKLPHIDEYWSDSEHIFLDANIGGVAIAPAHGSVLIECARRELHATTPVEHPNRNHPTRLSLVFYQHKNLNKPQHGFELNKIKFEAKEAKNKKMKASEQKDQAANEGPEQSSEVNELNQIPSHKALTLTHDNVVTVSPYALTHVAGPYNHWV
Experimental: (§1) For in vitro TET assays, 10 pmol of 16-mer hemi-methylated synthetic dsDNA oligomer designed after the Rassfla tumor suppressor gene promotor (5′-AATTAGAA[5meC]GCTCCTT3′) was incubated with 2×TET reaction buffer (50 mM HEPES [pH 7.9], 100 mM NaCl, 75 μM Fe(NH4)2(SO4)2, 2 mM ascorbate, 10 μM α-ketoglutarate, 1 mM DTT), recombinant human TET1 or TET2 catalytic domain (0.2 μg, 2.3 pmol, 115 nM) and 5% DMSO (or inhibitor in DMSO) on a 20 μL scale. Timing was achieved by withholding protein until the ‘start’ of the incubation window. Reactions were completed on a dry block at 37° C. for 30 minutes. Reactions were terminated at the ‘end’ of the incubation window by transferring reaction tubes to dry ice to snap-freeze the reaction until all replicates were completed. Upon completion, all samples were heat-inactivated at 90° C. for 10 minutes and then dried entirely in SpeedVac concentrator. Sample were then prepared for LCMS or dot blot analysis. HPLC-ESI-MS/MS quantitation of 5mC and 5hmC.
Quantitation of 5hmC is based on methodology previously described in Seiler et al., with slight modification.^21 Dried enzymatic reaction samples were reconstituted with mQ-water and spiked with 1 pmol each of 5-Methyl-2′-deoxycytidine-d3 and 5-(Hydroxymethyl)-2′deoxycytidine-d3. Nucleotide digestion enzyme mix and buffer were added per product guidelines on a 20 μL scale. Samples were digested for 60 min at 37° C. on a dry block. Following digestion, samples were filtered on nanosep 10K Omega filters. The samples were then dried entirely and resuspended in 100 μL mQ-water for offline HPLC cleanup to enrich 5hmC. An Atlantis T3 column (Waters, 4.6×150 mm, 3 μm) was eluted at a flow of 0.9 mL/min with a linear gradient previously described of 5 mM NH4CHO2 buffer, pH 4.0 (A) and MeOH (B). Fractions containing 5meC and 5hmC were collected and pooled before analysis by isotope dilution HPLC-ESI-MS/MS. Pooled samples were dried and reconstituted in 2 mM ammonium formate buffer (NH4CHO2) with a Dionex Ultimate 3000UHPLC (Thermo Fisher) interfaced with a Thermo TSQ Quantis mass spectrometer (Thermo Fisher) flowing 2 mM NH4CHO2 (A) and ACN (B) at 15 μL/min through a Zorbax SB-C18 column (Agilent, 0.5×150 mm, 3 μm) with the gradients as previously described. 5meC and 5-d3-meC eluted at 5.1 minutes while 5hmC and 5-d3-hmC eluted at 3.5 minutes. Quantitation was completed monitoring MS/MS transitions m/z 242.1 [M+H^+]→m/z 126.1 [M-deoxyribose+H^+] for 5meC, m/z 245.2 [M+H^+]→m/z 129.0 [M-deoxyribose+H^+] for 5-d3-meC, m/z 258.1 [M+H^+]→m/z 142.1 [M-deoxyribose+H^+] for 5hmC, m/z 261.1 [M+H^+]→m z 145.1 [M-deoxyribose+H^+] for 5-d3-hmC. […]
Compounds 13b and 15 were taken forward and incubated with recombinant TET1 and TET2 protein to further evaluate their potential TET inhibitory activity. The compounds 13b and 15 were taken forward and evaluated in an in vitro TET activity assay with the enzymatically active catalytic domain of human TET1 using a hemimethylated synthetic oligomer substrate. Following a 30 minute enzymatic incubation time in the presence or absence of inhibitor, the reactions were halted through denaturation, and levels of 5mC 5hmC were quantified via LCMS/MS via direct isotope dilution (Seiler, C. L., et al., Biochemistry 2018, 57 (42), 6061-6069).

K562 cells = test: 5hmC dot blot in K562 cells treated with inhibitor; format: cell-based, human; details: 5 μM compound, 24 hours, genomic DNA dot blot, normalized to DMSO
Experimental: Cells were grown in MEM media supplemented with 10% FBS (Gibco by Life Technologies TM, #16140-071) and AntibioticAntimycotic (Gibco by Life Technologies TM, #15240062) at 37° C. under 5% CO2. Solutions of inhibitors were prepared in dimethyl sulfoxide (DMSO) were incubated with cells at the specific concentration and duration prior to collection and extraction of genomic DNA.
For cellular assays, genomic DNA was extracted using DNA Blood/Tissue Kit, denatured, and subjected to dot blotting analysis using antibody against 5hmC (Active Motif, #39769) as previously described.^22 Briefly, 2 μg of purified DNA was denatured at 100° C. and mixed 1:1 with 2M NaOAc. DNA was loaded to the membrane, washed, and blocked with 5% NFM. Primary antibody for 5-hmC was incubated overnight and detected by fluorescence. The DNA spotted membrane was then stained with 0.02% methylene blue in 0.5 M sodium acetate (pH 5.0) for DNA loading control. The same protocol was followed for in vitro assays.
K562 cells, a TET proficient leukemia model, were treated with 5 μM of respective compound for 24 hours. Genomic DNA was extracted and 5hmC levels were quantified via dot blot (FIG. 1A and FIG. 1B).

[2] = biological target: T2, recombinant human TET2 catalytic domain (Homo sapiens, UniProt Q6N021); test: In vitro TET2 activity assay, LC-MS/MS quantitation; format: biochemical; details: 30 minute incubation, FIG. 3; read-out: IC50, TET2 mediated conversion of 5mC to 5hmC
T2 construct: recombinant human TET1 or TET2 catalytic domain; purchased Active Motif 31418
Experimental: as §1, with “Upon completion, all samples were heat-inactivated at 90° C. for 10 minutes and then dried entirely in SpeedVac concentrator. Sample were then prepared for LCMS or dot blot analysis.” left out
Quantitation of 5hmC is based on methodology previously described in Seiler et al., with slight modification.^21 Dried enzymatic reaction samples were reconstituted with mQ-water and spiked with 1 pmol each of 5-Methyl-2′-deoxycytidine-d3 and 5-(Hydroxymethyl)-2′deoxycytidine-d3. […] Quantitation was completed monitoring MS/MS transitions m/z 242.1 [M+H^+]→m/z 126.1 [M-deoxyribose+H^+] for 5meC, m/z 245.2 [M+H^+]→m/z 129.0 [M-deoxyribose+H^+] for 5-d3-meC, m/z 258.1 [M+H^+]→m/z 142.1 [M-deoxyribose+H^+] for 5hmC, m/z 261.1 [M+H^+]→m z 145.1 [M-deoxyribose+H^+] for 5-d3-hmC. […]

| TET inhibition (in words) [1] | IC50 [2] [µM] | reduced hmC production in comparison to DMSO control ([1]; 10 μM inhibitor) [%] | reduced hmC production in comparison to DMSO control ([1]; 100 μM inhibitor) [%] | reduced hmC production in comparison to DMSO control ([1]; 500 μM inhibitor) [%] | SMILES | lowered the relative levels of 5hmC (K562 cells) [%] |
| --- | --- | --- | --- | --- | --- | --- |
| dose-dependent TET inhibition |  |  |  |  | Nc1nc(=O)n([C@H]2C[C@H](O)[C@@H](CO)O2)cc1C#CCCN(O)C(=O)/C=C/C(=O)O [Compound 15, (E)-4-((4-(4-amino-1-((2R,4S,5R)-4-hydroxy-5-(hydroxymethyl)tetrahydrofuran-2-yl)-2-oxo-1,2-dihydropyrimidin-5-yl)but-3-yn-1-yl)(hydroxy)amino)-4-oxobut-2-enoic acid] | 47±45 |
| dose-dependent TET inhibition | ~1000 | 22±5 | 30±4 | 85±3 | Nc1nc(=O)n([C@H]2C[C@H](O)[C@@H](CO)O2)cc1C#CCCN(O)C(=O)CCC(=O)O [Compound 13b, 4-((4-(4-amino-1-((2R,4S,5R)-4-hydroxy-5-(hydroxymethyl)tetrahydrofuran-2-yl)-2-oxo-1,2-dihydropyrimidin-5-yl)but-3-yn-1-yl)(hydroxy)amino)-4-oxobutanoic acid] | 55±20 |
|  |  |  |  |  | Nc1nc(=O)n([C@H]2C[C@H](O)[C@@H](CO)O2)cc1C#CCCNC(=O)/C=C/C(=O)O [Compound 14, (E)-4-((4-(4-amino-1-((2R,4S,5R)-4-hydroxy-5-(hydroxymethyl)tetrahydrofuran-2-yl)-2-oxo-1,2-dihydropyrimidin-5-yl)but-3-yn-1-yl)amino)-4-oxobut-2-enoic acid] | 26±21 |
|  |  |  |  |  | COC(=O)/C=C/C(=O)N(O)CCC#Cc1cn([C@H]2C[C@H](O)[C@@H](CO)O2)c(=O)nc1N [Compound 11, methyl (E)-4-((4-(4-amino-1-((2R,4S,5R)-4-hydroxy-5-(hydroxymethyl)-tetrahydrofuran-2-yl)-2-oxo-1,2-dihydropyrimidin-5-yl)but-3-yn-1-yl)(hydroxy)amino)-4-oxobut-2-enoate] | 30±8 |
